Data as given in patent US7956219B2, “Amino acid analogues” (Baker IDI Heart and Diabetes, priority 2002, dated 2011).

What was measured:
EA.hy.926 = assay: Arginine uptake by endothelial cell line EA.hy.926; type: cell-based; conditions: Homo sapiens, read-out: Arg uptake (% control) from FIG. 4; for activity at 0.1 µM: compound at 10^-7 M (bottom value); for activity at 0.01 µM: compound at 10^-8 M (top value)
Excerpt: Further studies have been performed to characterize the effects of compounds from library M0006 on arginine transport in endothelial cells. Studies performed in the endothelial cell line EA.hy.926 (Harrison-Shostak et al, 1997) have identified a number of compounds which exert a stimulatory effect on L-arginine transport. This cell line is considered to be more physiologically relevant than HeLa cells to the target conditions, and in fact was more sensitive. Table 16 summarises results for the compounds so far identified which have the highest activity in the arginine transport assay.

rat aorta = assay: Isolated aortic ring assay: acetyl choline-induced vascular relaxation; conditions: rat aorta sections; compound at 10^−8M
Description: FIG. 3 illustrates the augmentation of vascular relaxation produced by increasing concentrations of acetyl choline in the absence of and presence of test compounds. C indicates control.
Initially four compounds were tested for their effect on vascular tone, using an isolated aortic ring assay. In this assay, sections of rat aorta are mounted in an organ bath, and tension is determined continuously using a strain gauge, as described by Furchgott & Zawadski (1980). The effect of test compounds on the vasorelaxant effect of the endothelial-dependent vasodilator acetyl choline (ACh) was examined. […] It will be appreciated that similar experiments may be performed using sections of human aorta, coronary artery or peripheral artery obtained at surgery.

HeLa cells = assay: Radiolabelled L-arginine uptake into HeLa cells; type: cell-based
Description: C: Control performed in the absence of test compound. […] Panel A: Compound A4; Panel B: Compound A7; Panel C: G10; Panel D: Compound H4.
In parallel with this assay, the capacity for these compounds to alter arginine entry into cells was assessed. Initial studies were conducted in HeLa cells. Arginine entry was determined by the rate of entry of radiolabelled L-arginine into the cells, using the method of Kaye et al., (2000). Of the total library, four compounds were identified which had inhibitory activity at a Ki of 100 μM. These compounds were as follows:
In the light of the foregoing discussion, we propose that this effect may be associated with therapeutic benefit.

Row | Structure (SMILES) | activity at 0.1 µM (EA.hy.926) [%] | activity at 0.01 µM (EA.hy.926) [%] | augmentation of acetyl choline-induced vascular relaxation (rat aorta) | effect on L-arginine transport at low concentration (HeLa cells; HeLa cells, low concentration (10^−7 and 10^−8 M)) | effect on L-arginine transport at high concentration (HeLa cells; high concentration)
1 | Cc1cccc(COc2cc(C(N)=O)ccc2NC(=N)NCc2ccco2)c1 [M0006 02 H08, 4-(N′-Furan-2-ylmethyl-guanidino)-3-(3-methyl-benzyloxy)-benzamide] | 182 | 108 | – | – | –
2 | N=C(NCc1ccccc1F)Nc1ccc(C(N)=O)cc1OCC1CCC1 [M0006 01 A11, 3-Cyclobutylmethoxy-4-[N′-(2-fluoro-benzyl)-guanidino]-benzamide] | 128 | 159 | – | – | –
3 | CC(CNC(=N)Nc1ccc(C(N)=O)cc1OCC1CC1)c1ccccc1 (centres unmarked) [M0006 01 C12, 3-Cyclopropylmethoxy-4-[N′-(2-phenyl-propyl)-guanidino]-benzamide] | 133 | 116 | – | – | –
4 | COc1ccccc1CNC(=N)Nc1ccc(C(N)=O)cc1OCC1CCC1 [M0006 01 B04, 3-Cyclobutylmethoxy-4-[N′-(2-methoxy-benzyl)-guanidino]-benzamide] | 122 | 130 | – | – | –
5 | CC(C)CNC(=N)Nc1ccc(C(N)=O)cc1OCC1CCCCO1 (centres unmarked) [M0006 01 F12, 4-(N′-Isobutyl-guanidino)-3-(tetrahydro-pyran-2-ylmethoxy)-benzamide] | 146 | 103 | – | – | –
6 | CC(CNC(=N)Nc1ccc(C(N)=O)cc1OCC1CCCCO1)c1ccccc1 (centres unmarked) [M0006 01 F05, 4-[N′-(2-Phenyl-propyl)-guanidino)-3-(tetrahydro-pyran-2-ylmethoxy)-benzamide] | 130 | 135 | – | – | –
7 | COc1ccccc1CNC(=N)Nc1ccc(C(N)=O)cc1OCC1CCCCC1 [M0006 01 H10, 3-Cyclohexylmethoxy-4-[N′-(2-methoxy-benzyl)-guanidino]-benzamide] | 146 | 153 | – | – | –
8 | N=C(NCc1ccccc1)Nc1ccc(C(N)=O)cc1OCC1CCCCC1 [M0006 01 H11, 4-(N′-Benzyl-guanidino)-3-cyclohexylmethoxy-benzamide] | 190 | 131 | – | – | –
9 | N=C(NCc1ccc(Cl)c(Cl)c1)Nc1ccc(C(N)=O)cc1OCC1CCCCC1 [M0006 01 H04, 3-Cyclohexylmethoxy-4-[N′-(3,4-dichloro-benzyl)-guanidino]-benzamide] | 92 | 99 | – | – | –
10 | N=C(NCc1ccc(Cl)c(Cl)c1)Nc1ccc(C(N)=O)cc1OCC1CCC1 [M0006 01 A07, 3-Cyclobutylmethoxy-4-[N′-(3,4-dichloro-benzyl)-guanidino]-benzamide] | 66 | 87 | – | – | –
11 | N=C(NCc1ccccc1)Nc1ccc(C(N)=O)cc1OCC1CCCCO1 (centres unmarked) [M0006 01 F09, 4-(N′-Benzyl-guanidino)-3-(tetrahydro-pyran-2-ylmethoxy)-benzamide] | 110 | 140 | – | – | –
12 | N=C(NCc1cc(C(F)(F)F)cc(C(F)(F)F)c1)Nc1ccc(C(N)=O)cc1OCC1CCC1 [Compound A4] | – | – | significant augmentation | – | –
13 | N=C(NCNc1ccc([N+](=O)[O-])cn1)Nc1ccc(C(N)=O)cc1OCc1ccccc1 [M0006 02 D06, 3-Benzyloxy-4-{N′-[(5-nitro-pyridin-2-ylamino)-methyl]-guanidino}-benzamide] | 138 | 176 | – | – | –
14 | N=C(NCc1cc(C(F)(F)F)cc(C(F)(F)F)c1)Nc1ccc(C(N)=O)cc1OCC1CCCCC1 [M0006 01 G10] | 188 | 125 | – | – | –
15 | N=C(NCC1CCCCC1)Nc1ccc(C(N)=O)cc1OCC1CCCCC1 [M0006 02 A10, 3-Cyclohexylmethoxy-4-(N′-cyclohexylmethyl-guanidino)-benzamide] | 127 | 123 | – | – | –
16 | N=C(Nc1ccc(C(N)=O)cc1OCC1CCC1)NC1CCCCC1 [M0006 01 B12, 3-Cyclobutylmethoxy-4-(N′-cyclohexyl-guanidino)-benzamide] | 134 | 161 | – | – | –
17 | Cc1ccc(CNC(=N)Nc2ccc(C(N)=O)cc2OCC2CCC2)cc1 [M0006 01 A12, 3-Cyclobutylmethoxy-4-[N′-(4-methyl-benzyl)-guanidino]-benzamide] | 160 | 179 | – | – | –
18 | N=C(NCc1cc(C(F)(F)F)cc(C(F)(F)F)c1)Nc1ccc(C(N)=O)cc1OCC1CCC1 [M0006 01 A04] | 108 | 103 | – | – | –
19 | N=C(NCc1ccc2c(c1)OCO2)Nc1ccc(C(N)=O)cc1OCC1CCCCO1 (centres unmarked) [M0006 01 F10, 4-(N′-Benzo[1,3]dioxol-5-ylmethyl-guanidino)-3-(tetrahydro-pyran-2-ylmethoxy)-benzamide] | 131 | 119 | – | – | –
20 | N=C(NCc1ccco1)Nc1ccc(C(N)=O)cc1OCc1ccccc1 [M0006 02 F06, 3-Benzyloxy-4-(N′-furan-2-ylmethyl-guanidino)-benzamide] | 126 | 158 | – | – | –
21 | N=C(NCc1cc(C(F)(F)F)cc(C(F)(F)F)c1)Nc1ccc(C(N)=O)cc1OCC1CCCCC1 [Compound G10, 3-Cyclohexylmelhoxy-4-[N′-(3,5-trifluoromethyl-benzyl)-guanidino]-benzamide] | – | – | – | enhance L-arginine transport at low concentration | inhibit such transport at high concentration
22 | N=C(NCc1ccc(Cl)c(Cl)c1)Nc1ccc(C(N)=O)cc1OCC1CCCCC1 [Compound H4, 3-Cyclohexylmethoxy-4-[N′-(3,4-dichloro-benzyl)-guanidino]-benzamide] | – | – | significant augmentation | – | –
23 | N=C(NCc1ccccc1)Nc1ccc(C(N)=O)cc1OCc1ccccc1 [M0006 02 E06, 4-(N′-Benzyl-guanidino)-3-benzyloxy-benzamide] | 160 | 167 | – | – | –
